{"source": "patent US20230301968A1", "about": "(ZEPHAPHARM LTD, priority 2020, published 2023)", "key": {"[1]": {"target": "T1, CYP2B6 (Homo sapiens, UniProt P20813)", "T1 construct": "purchased", "T1 sequence (P20813 1-491)": "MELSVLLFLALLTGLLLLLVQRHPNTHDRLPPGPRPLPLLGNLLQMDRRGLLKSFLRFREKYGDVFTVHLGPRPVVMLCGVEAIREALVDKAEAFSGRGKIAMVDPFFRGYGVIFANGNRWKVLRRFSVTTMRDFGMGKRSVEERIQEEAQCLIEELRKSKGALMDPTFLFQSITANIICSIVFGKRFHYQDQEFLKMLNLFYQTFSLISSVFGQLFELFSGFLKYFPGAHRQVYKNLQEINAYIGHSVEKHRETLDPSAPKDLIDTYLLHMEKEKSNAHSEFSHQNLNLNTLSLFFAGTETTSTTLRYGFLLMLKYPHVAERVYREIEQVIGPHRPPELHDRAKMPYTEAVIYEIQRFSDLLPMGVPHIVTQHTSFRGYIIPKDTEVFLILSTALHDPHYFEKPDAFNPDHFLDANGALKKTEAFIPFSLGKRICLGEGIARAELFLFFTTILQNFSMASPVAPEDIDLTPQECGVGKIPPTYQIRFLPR", "assay": "Cytochrome P450 reaction phenotyping, recombinant CYP2B6", "type": "in vitro ADME", "procedure": "(§1) The amount of test compound remaining at each time point was analysed by LC-MS/MS. Incubations in control recombinant enzymes were also performed to assess non-enzymatic mediated stability.\n(§2) Incubations were also performed using control Bactosomes™ (no cytochrome P450 enzymes present) to reveal any non-enzymatic degradation. Control compounds known to be metabolised specifically by each P450 isoform were included. All incubations were performed singularly for each test compound. […] The reactions were stopped by transferring an aliquot of incubate to quench solvent at the appropriate time points, in a 1:3 ratio. The termination plates were centrifuged at 3,000 rpm for 20 min at 4° C. to precipitate the protein. Following protein precipitation, the sample supernatants were analysed using LC-MS/MS, along with internal standard (1:1 supernatant to internal standard).\n(§3) Following correction for any loss in the incubations with the control Bactosomes™, from a plot of In peak area ratio (compound peak area/internal standard peak area) against time, the gradient of the line was determined. Subsequently, half-life (t½) was calculated using the equations below: […]"}, "[2]": {"target": "CYP2C9 (Homo sapiens, UniProt P11712)", "sequence (P11712 whole entry)": "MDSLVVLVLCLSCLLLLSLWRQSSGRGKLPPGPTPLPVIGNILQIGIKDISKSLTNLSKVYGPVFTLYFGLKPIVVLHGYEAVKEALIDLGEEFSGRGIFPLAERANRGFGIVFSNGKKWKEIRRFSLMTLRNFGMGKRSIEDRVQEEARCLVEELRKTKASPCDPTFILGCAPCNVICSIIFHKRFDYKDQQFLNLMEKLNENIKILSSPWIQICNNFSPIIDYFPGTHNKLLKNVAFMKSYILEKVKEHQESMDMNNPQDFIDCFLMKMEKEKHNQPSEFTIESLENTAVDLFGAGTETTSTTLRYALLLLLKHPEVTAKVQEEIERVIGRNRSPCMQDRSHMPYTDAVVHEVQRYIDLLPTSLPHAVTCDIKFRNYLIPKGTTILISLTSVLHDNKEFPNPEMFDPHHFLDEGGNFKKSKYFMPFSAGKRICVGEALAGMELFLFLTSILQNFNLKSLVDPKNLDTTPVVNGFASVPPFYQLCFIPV", "assay": "Cytochrome P450 reaction phenotyping, recombinant CYP2C9", "conditions": "for t½: 1 µM substrate, recombinant CYP2C9, NADPH", "procedure": "as §1, §2, §3"}, "[3]": {"target": "T2, CYP3A4 (Homo sapiens, UniProt P08684)", "T2 construct": "purchased", "T2 sequence (P08684 whole entry)": "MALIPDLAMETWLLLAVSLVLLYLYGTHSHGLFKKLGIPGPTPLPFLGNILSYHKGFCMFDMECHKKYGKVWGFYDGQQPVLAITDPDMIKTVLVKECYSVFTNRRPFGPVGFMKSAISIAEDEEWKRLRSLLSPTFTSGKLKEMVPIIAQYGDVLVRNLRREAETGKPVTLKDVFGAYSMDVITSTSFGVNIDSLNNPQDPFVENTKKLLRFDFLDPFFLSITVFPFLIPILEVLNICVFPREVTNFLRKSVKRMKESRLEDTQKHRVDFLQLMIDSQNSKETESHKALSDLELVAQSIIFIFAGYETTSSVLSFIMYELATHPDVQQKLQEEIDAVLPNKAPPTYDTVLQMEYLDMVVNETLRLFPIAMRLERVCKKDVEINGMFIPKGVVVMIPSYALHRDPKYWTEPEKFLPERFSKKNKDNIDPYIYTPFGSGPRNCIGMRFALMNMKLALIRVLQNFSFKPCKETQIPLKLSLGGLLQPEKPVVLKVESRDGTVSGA", "assay": "Cytochrome P450 reaction phenotyping, recombinant CYP3A4", "type": "in vitro ADME", "procedure": "as §1, §2, §3"}, "[4]": {"assay": "Metabolic stability in human liver microsomes with or without CYP1A2 inhibitor furafylline", "conditions": "human, microsomes", "procedure": "(§4) The amount of test compound remaining at each time point was analysed by LC-MS/MS. An incubation in the absence of NADPH was also performed to assess non-CYP mediated stability.\n(§5) In the pre-screen assay, […] 0.1 M phosphate buffer pH 7.4 (final substrate concentration 1 µM) were pre-incubated at 37° C. prior to the addition of NADPH (final concentration 1 mM) to initiate the reaction. A minus cofactor control incubation was included for each compound tested where 0.1 M phosphate buffer pH 7.4 was added instead of NADPH (minus NADPH). […] A minus cofactor control incubation was included for each compound tested where 0.1 M phosphate buffer pH 7.4 was added instead of cofactor (minus NADPH). […] The reactions were stopped by transferring an aliquot of incubate to acetonitrile at the appropriate time points, in a 1:3 ratio. The termination plates were centrifuged at 3,000 rpm for 20 min at 4° C. to precipitate the protein. Following protein precipitation, the sample supernatants were analysed using LC-MS/MS, along with internal standard (1:1 supernatant to internal standard).\n(§6) From a plot of In peak area ratio (compound peak area/internal standard peak area) against time, the gradient of the line was determined. Subsequently, half-life and intrinsic clearance were calculated using the equations below: […]"}, "[5]": {"tested_on": "CYP1A2", "assay": "Metabolic stability in human liver microsomes with or without CYP1A2 inhibitor furafylline", "conditions": "human, microsomes; for microsomal CLint at 1 µM: pH 7.4, CLint", "procedure": "as §4, §5, §6"}, "[6]": {"tested_on": "human liver microsomes", "assay": "Metabolic stability in human liver microsomes with or without CYP1A2 inhibitor furafylline", "conditions": "10 µM furafylline versus no inhibitor", "procedure": "as §4, §5, §6"}, "[7]": {"assay": "Stability in human cryopreserved hepatocytes with or without CYP1A2 inhibitors (assays 1 to 3)", "conditions": "human, hepatocytes; for half-life at 1 µM: t½", "procedure": "(§7) In each assay, the amount of test compound remaining at each time point was analysed by LC-MS/MS.\n(§8) The final incubation volume was 500 µL. […] A positive control compound, ethoxycoumarin, for CYP1A2 (as CYP1A2 substrate) was included. […] The reactions were stopped by transferring 50 µL of incubate to 100 µL acetonitrile containing internal standard at the appropriate time points (0, 5, 10, 20, 40 and 60 min). The termination plates were centrifuged at 2500 rpm at 4° C. for 30 min to precipitate the protein.\n(§9) From a plot of In peak area ratio (compound peak area/internal standard peak area) against time, the gradient of the line was determined. Subsequently, half-life (t½) and intrinsic clearance (CLint) were calculated using the equations below: […]"}, "[8]": {"tested_on": "CYP1A2", "assay": "Stability in human cryopreserved hepatocytes with or without CYP1A2 inhibitors (assays 1 to 3)", "conditions": "human, hepatocytes; for half-life at 1 µM: t½", "procedure": "as §7, §8, §9"}}, "data": [{"smiles": "COC(=O)Nc1nc2cc(C(=O)c3ccc(F)cc3)ccc2[nH]1", "note": "[Flubendazole, methyl N-[6-(4-fluorobenzoyl)-1H-benzimidazol-2-yl]carbamate]", "values": [{"measurement": "Compound Remaining (% of 0 min)", "setting": "[1]; CYP2B6, 0 min", "result": 100, "unit": "%"}, {"measurement": "Compound Remaining (% of 0 min)", "setting": "[1]; CYP2B6, 5 min", "result": 96.5, "unit": "%"}, {"measurement": "Compound Remaining (% of 0 min)", "setting": "[1]; CYP2B6, 15 min", "result": 95.8, "unit": "%"}, {"measurement": "Compound Remaining (% of 0 min)", "setting": "[1]; CYP2B6, 30 min", "result": 97.8, "unit": "%"}, {"measurement": "Compound Remaining (% of 0 min)", "setting": "[1]; CYP2B6, 45 min", "result": 104, "unit": "%"}, {"measurement": "half-life at 1 µM", "setting": "[1]; human, pH 7.4, 1 µM substrate, recombinant CYP2B6, NADPH, minus value = not metabolised, read-out: t½", "result": "≥ 2.45", "unit": "h"}, {"measurement": "t½", "setting": "[2]", "result": 95.33, "unit": "h"}, {"measurement": "t½", "setting": "[2]; listed as flubendazole", "result": "≥ 2.45", "unit": "h"}, {"measurement": "Compound Remaining (% of 0 min)", "setting": "[2]; CYP2C9, 0 min", "result": 100, "unit": "%"}, {"measurement": "Compound Remaining (% of 0 min)", "setting": "[2]; CYP2C9, 5 min", "result": 97.4, "unit": "%"}, {"measurement": "Compound Remaining (% of 0 min)", "setting": "[2]; CYP2C9, 15 min", "result": 101, "unit": "%"}, {"measurement": "Compound Remaining (% of 0 min)", "setting": "[2]; CYP2C9, 30 min", "result": 97.9, "unit": "%"}, {"measurement": "Compound Remaining (% of 0 min)", "setting": "[2]; CYP2C9, 45 min", "result": 99.0, "unit": "%"}, {"measurement": "Compound Remaining (% of 0 min)", "setting": "[3]; CYP3A4, 0 min", "result": 100, "unit": "%"}, {"measurement": "Compound Remaining (% of 0 min)", "setting": "[3]; CYP3A4, 5 min", "result": 94.6, "unit": "%"}, {"measurement": "Compound Remaining (% of 0 min)", "setting": "[3]; CYP3A4, 15 min", "result": 98.2, "unit": "%"}, {"measurement": "Compound Remaining (% of 0 min)", "setting": "[3]; CYP3A4, 30 min", "result": 100, "unit": "%"}, {"measurement": "Compound Remaining (% of 0 min)", "setting": "[3]; CYP3A4, 45 min", "result": 97.5, "unit": "%"}, {"measurement": "half-life at 1 µM", "setting": "[3]; human, pH 7.4, 1 µM substrate, recombinant CYP3A4, NADPH, minus value = not metabolised, read-out: t½", "result": "≥ 2.45", "unit": "h"}, {"measurement": "microsomal CLint at 1 µM", "setting": "[4]; pH 7.4, CLint, 1 µM substrate, no inhibitor", "result": 50.3, "unit": "µL/min/mg"}, {"measurement": "microsomal CLint at 1 µM", "setting": "[4]; pH 7.4, intrinsic clearance (CLint), pre-screen assay, absence of inhibitor", "result": 43.7, "unit": "µL/min/mg"}, {"measurement": "half-life at 1 µM", "setting": "[4]; pH 7.4, t½, 1 µM substrate, no inhibitor", "result": 0.46, "unit": "h"}, {"measurement": "microsomal CLint at 1 µM", "setting": "[5]; 1 µM substrate, plus 3 µM furafylline", "result": 14.6, "unit": "µL/min/mg"}, {"measurement": "microsomal CLint at 1 µM", "setting": "[5]; 1 µM substrate, plus 10 µM furafylline", "result": 3.52, "unit": "µL/min/mg"}, {"measurement": "microsomal CLint at 1 µM", "setting": "[5]; 1 µM substrate, plus 30 µM furafylline", "result": 5.39, "unit": "µL/min/mg"}, {"measurement": "half-life at 1 µM", "setting": "[5]; pH 7.4, half-life, 1 µM flubendazole, 10 µM furafylline", "result": 6.6, "unit": "h"}, {"measurement": "half-life at 1 µM", "setting": "[5]; pH 7.4, t½, 1 µM substrate, plus 3 µM furafylline", "result": 1.58, "unit": "h"}, {"measurement": "half-life at 1 µM", "setting": "[5]; pH 7.4, t½, 1 µM substrate, plus 10 µM furafylline", "result": 6.57, "unit": "h"}, {"measurement": "half-life at 1 µM", "setting": "[5]; pH 7.4, t½, 1 µM substrate, plus 30 µM furafylline", "result": 4.28, "unit": "h"}, {"measurement": "increase in half-life", "setting": "[6]", "result": "> 14", "unit": "times"}, {"measurement": "hepatocyte CLint at 1 µM", "setting": "[7]; CLint, assay 2, no inhibitor", "result": "8.62 ± 2.23", "unit": "µL/min/1e6 cells"}, {"measurement": "hepatocyte CLint at 1 µM", "setting": "[7]; CLint, assay 3, no inhibitor", "result": "16.7 ± 2.06", "unit": "µL/min/1e6 cells"}, {"measurement": "hepatocyte CLint at 1 µM", "setting": "[7]; intrinsic clearance, assay 1 (pre-screening assay), no inhibitor", "result": "15.2 ± 1.09", "unit": "µL/min/1e6 cells"}, {"measurement": "half-life at 1 µM", "setting": "[7]; assay 2, no inhibitor", "result": 2.68, "unit": "h"}, {"measurement": "half-life at 1 µM", "setting": "[7]; assay 3, no inhibitor", "result": 1.38, "unit": "h"}, {"measurement": "hepatocyte CLint at 1 µM", "setting": "[8]; assay 2, fluvoxamine 10 µM", "result": "3.95 ± 0.941", "unit": "µL/min/1e6 cells"}, {"measurement": "hepatocyte CLint at 1 µM", "setting": "[8]; assay 2, furafylline 1 µM", "result": "2.05 ± 2.04", "unit": "µL/min/1e6 cells"}, {"measurement": "hepatocyte CLint at 1 µM", "setting": "[8]; assay 2, furafylline 3 µM", "result": "1.7 ± 0.885", "unit": "µL/min/1e6 cells"}, {"measurement": "hepatocyte CLint at 1 µM", "setting": "[8]; assay 2, thiabendazole 10 µM", "result": "2.96 ± 1.17", "unit": "µL/min/1e6 cells"}, {"measurement": "hepatocyte CLint at 1 µM", "setting": "[8]; assay 3, cimetidine 10 µM", "result": "5.43 ± 1.9", "unit": "µL/min/1e6 cells"}, {"measurement": "hepatocyte CLint at 1 µM", "setting": "[8]; assay 3, cimetidine 100 µM", "result": "10.9 ± 1.27", "unit": "µL/min/1e6 cells"}, {"measurement": "hepatocyte CLint at 1 µM", "setting": "[8]; assay 3, cimetidine 300 µM", "result": "9.19 ± 1.7", "unit": "µL/min/1e6 cells"}, {"measurement": "hepatocyte CLint at 1 µM", "setting": "[8]; assay 3, mexiletine 10 µM", "result": "0.861 ± 0.522", "unit": "µL/min/1e6 cells"}, {"measurement": "hepatocyte CLint at 1 µM", "setting": "[8]; assay 3, mexiletine 300 µM", "result": "5.85 ± 1.25", "unit": "µL/min/1e6 cells"}, {"measurement": "half-life at 1 µM", "setting": "[8]; assay 2, fluvoxamine 10 µM", "result": 5.85, "unit": "h"}, {"measurement": "half-life at 1 µM", "setting": "[8]; assay 2, furafylline 1 µM", "result": 11.3, "unit": "h"}, {"measurement": "half-life at 1 µM", "setting": "[8]; assay 2, furafylline 3 µM", "result": 13.6, "unit": "h"}, {"measurement": "half-life at 1 µM", "setting": "[8]; assay 2, thiabendazole 10 µM", "result": 7.8, "unit": "h"}, {"measurement": "half-life at 1 µM", "setting": "[8]; assay 3, cimetidine 10 µM", "result": 4.25, "unit": "h"}, {"measurement": "half-life at 1 µM", "setting": "[8]; assay 3, cimetidine 100 µM", "result": 2.13, "unit": "h"}, {"measurement": "half-life at 1 µM", "setting": "[8]; assay 3, cimetidine 300 µM", "result": 2.52, "unit": "h"}, {"measurement": "half-life at 1 µM", "setting": "[8]; assay 3, mexiletine 10 µM", "result": 26.8, "unit": "h"}, {"measurement": "half-life at 1 µM", "setting": "[8]; assay 3, mexiletine 300 µM", "result": 3.95, "unit": "h"}]}]}
